Experimental data: ChEMBL document CHEMBL1799953, “Backbone cyclic peptide inhibitors of protein kinase B (PKB/Akt)” (J Med Chem, 2011)
*1 amine or outer side, *2 acyl side, *3 side chain or, on linkers, in order; H or OH if unused. Where a SMILES comes first, the peptide text is derived from it. Bridges are numbered along the chain shown (N, C = ends). [ ]: non-standard residue; d: D form. N(6-aminohexyl)Gly = O=C(CN(CCCCCCN[*:3])[*:1])[*:2]; N(2-Aminoethyl)Gly = O=C(CN(CCN[*:3])[*:1])[*:2]; Gly(N-(CH2)6NH2) = NCCCCCCNCC(=O)O; Gly(N-2-aminoethyl) = NCCNCC(=O)O; Gly(N(CH2)3NH2) = NCCCNCC(=O)O; hLeu = CC(C)CC[C@H](N)C(=O)O; Nva = CCC[C@H](N)C(=O)O; Dap = NC[C@H](N)C(=O)O; CO = O=C([*:1])[*:2]; Nlys = NCCCCNCC(=O)O

Each molecule was assayed against RAC-alpha serine/threonine-protein kinase (Homo sapiens, UniProt P31749) (assay: Inhibition of Akt using RPRTSSF peptide and [gamma32]ATP at 0.625 uM by cell-free radioactive assay relative to control).
Chain of RAC-alpha serine/threonine-protein kinase (P31749 whole entry): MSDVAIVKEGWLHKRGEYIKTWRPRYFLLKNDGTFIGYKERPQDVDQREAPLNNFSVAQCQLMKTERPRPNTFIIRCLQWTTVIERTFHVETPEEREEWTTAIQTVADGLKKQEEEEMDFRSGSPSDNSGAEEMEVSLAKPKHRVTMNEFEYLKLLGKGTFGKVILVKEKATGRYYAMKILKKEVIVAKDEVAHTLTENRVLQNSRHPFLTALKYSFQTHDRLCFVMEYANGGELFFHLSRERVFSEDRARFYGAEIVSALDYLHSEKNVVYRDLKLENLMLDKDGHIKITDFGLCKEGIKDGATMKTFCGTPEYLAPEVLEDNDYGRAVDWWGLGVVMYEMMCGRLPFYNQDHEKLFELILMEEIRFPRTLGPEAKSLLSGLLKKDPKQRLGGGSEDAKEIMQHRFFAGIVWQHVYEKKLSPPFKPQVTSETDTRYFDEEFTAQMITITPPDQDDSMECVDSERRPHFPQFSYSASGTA

| inhibition | SMILES |
| --- | --- |
| 76% | CCC[C@H](NC(=O)[C@H](CCCNC(=N)N)NC(=O)CN(CCN)C(=O)[C@@H](N)CCCNC(=N)N)C(=O)N[C@@H](Cc1ccc(O)cc1)C(=O)N[C@@H](CN)C(=O)N[C@@H](CCC(C)C)C(=O)N(CCCN)CC(N)=O (H-R[Gly(N-2-aminoethyl)]R[Nva]Y[Dap][hLeu][Gly(N(CH2)3NH2)]-NH2) |
| 26% | CCC[C@@H]1NC(=O)[C@H](CCCNC(=N)N)NC(=O)CNCCCCCCNC(=O)NCCN(CC(N)=O)C(=O)[C@H](CCC(C)C)NC(=O)[C@H](CN)NC(=O)[C@H](Cc2ccc(O)cc2)NC1=O (H-[N(6-aminohexyl)Gly]R[Nva]Y[Dap][hLeu][N(2-Aminoethyl)Gly]-NH2; linker 1-7 via CO) |
| 32% | CCC[C@@H]1NC(=O)[C@H](CCCNC(=N)N)NC(=O)CNCCCCNC(=O)NCCN(CC(N)=O)C(=O)[C@H](CCC(C)C)NC(=O)[C@H](CN)NC(=O)[C@H](Cc2ccc(O)cc2)NC1=O (H-[Nlys]R[Nva]Y[Dap][hLeu][N(2-Aminoethyl)Gly]-NH2; linker 1-7 via CO) |
| 57% | CCC[C@H](NC(=O)[C@H](CCCNC(=N)N)NC(=O)CN(CCN)C(=O)[C@@H](N)CCCNC(=N)N)C(=O)N[C@@H](Cc1ccc(O)cc1)C(=O)N[C@@H](CN)C(=O)N[C@@H](CCC(C)C)C(=O)N(CCN)CC(N)=O (H-R[Gly(N-2-aminoethyl)]R[Nva]Y[Dap][hLeu][Gly(N-2-aminoethyl)]-NH2) |
| 36% | CCC[C@H](NC(=O)[C@H](CCCNC(=N)N)NC(=O)[C@@H]1CCCN1C(=O)[C@@H](N)CCCNC(=N)N)C(=O)N[C@@H](Cc1ccc(O)cc1)C(=O)N[C@@H](CN)C(=O)N[C@@H](CCC(C)C)C(N)=O |

The next lines start with the molecule.

| SMILES | inhibition |
| --- | --- |
| CCC[C@H](NC(=O)[C@H](CCCNC(=N)N)NC(=O)CN(CCCCCCN)C(=O)[C@@H](N)CCCNC(=N)N)C(=O)N[C@@H](Cc1ccc(O)cc1)C(=O)N[C@@H](CN)C(=O)N[C@@H](CCC(C)C)C(=O)N(CCCCCCN)CC(N)=O (H-R[Gly(N-(CH2)6NH2)]R[Nva]Y[Dap][hLeu][Gly(N-(CH2)6NH2)]-NH2) | 57% |
| CCC[C@H](NC(=O)[C@H](CCCNC(=N)N)NC(=O)CN(CCCCCCN)C(=O)[C@@H](N)CCCNC(=N)N)C(=O)N[C@@H](Cc1ccc(O)cc1)C(=O)N[C@@H](CN)C(=O)N[C@@H](CCC(C)C)C(=O)N(CCCCN)CC(N)=O (H-R[Gly(N-(CH2)6NH2)]R[Nva]Y[Dap][hLeu][Nlys]-NH2) | 88% |
| CCC[C@H](NC(=O)[C@H](CCCNC(=N)N)NC(=O)CN(CCN)C(=O)[C@@H](N)CCCNC(=N)N)C(=O)N[C@@H](Cc1ccc(O)cc1)C(=O)N[C@@H](CN)C(=O)N[C@@H](CCC(C)C)C(=O)N(CCCCN)CC(N)=O (H-R[Gly(N-2-aminoethyl)]R[Nva]Y[Dap][hLeu][Nlys]-NH2) | 84% |
| CCC[C@H](NC(=O)[C@H](CCCNC(=N)N)NC(=O)CN(CCCCN)C(=O)[C@@H](N)CCCNC(=N)N)C(=O)N[C@@H](Cc1ccc(O)cc1)C(=O)N[C@@H](CN)C(=O)N[C@@H](CCC(C)C)C(=O)N(CCN)CC(N)=O (H-R[Nlys]R[Nva]Y[Dap][hLeu][Gly(N-2-aminoethyl)]-NH2) | 84% |
| CCC[C@H](NC(=O)[C@H](CCCNC(=N)N)NC(=O)CN(CCCCCCN)C(=O)[C@@H](N)CCCNC(=N)N)C(=O)N[C@@H](Cc1ccc(O)cc1)C(=O)N[C@@H](CN)C(=O)N[C@@H](CCC(C)C)C(=O)N(CCN)CC(N)=O (H-R[Gly(N-(CH2)6NH2)]R[Nva]Y[Dap][hLeu][Gly(N-2-aminoethyl)]-NH2) | 83% |
| CCC[C@H](NC(=O)[C@H](CCCNC(=N)N)NC(=O)CN(CCCCN)C(=O)[C@@H](N)CCCNC(=N)N)C(=O)N[C@@H](Cc1ccc(O)cc1)C(=O)N[C@@H](CN)C(=O)N[C@@H](CCC(C)C)C(=O)N(CCCCCCN)CC(N)=O (H-R[Nlys]R[Nva]Y[Dap][hLeu][Gly(N-(CH2)6NH2)]-NH2) | 60% |
| CCC[C@H](NC(=O)[C@H](CCCNC(=N)N)NC(=O)CN(CCN)C(=O)[C@@H](N)CCCNC(=N)N)C(=O)N[C@@H](Cc1ccc(O)cc1)C(=O)N[C@@H](CN)C(=O)N[C@@H](CCC(C)C)C(=O)N(CCCCCCN)CC(N)=O (H-R[Gly(N-2-aminoethyl)]R[Nva]Y[Dap][hLeu][Gly(N-(CH2)6NH2)]-NH2) | 42% |
